Source: US8273389B2, “Compositions comprising cinnamon oil (and/or its component cinnamaldehyde) and diallyl disulfide, their formulations, and methods of use” (Valent BioSciences Corporation, priority 2008, dated 2012)

Test system: Meloidogyne incognita (Root-knot nematode)
Experiment: Greenhouse pot test, root galling of cucumber seedlings by root-knot nematode
Format: in vivo
Conditions: 25 ml soil drench, 800 J2 per pot, rated after 12-15 days, 0 = no galls, 9 = heavy galling; for Average Gall Rating (0-9): Example 2, 300 ppm AI (combined total for mixtures), nematode control 9; for Gall Rating (0-9): Example 3, 300 ppm AI (combined total for mixture), nematode control 8.25
Method: Tests are conducted in 2″ pots containing 125 grams non-pasteurized 2:1 sand soil mix containing 2 cucumber seedlings at the 1st true leaf stage (var. Straight Eight). Each treatment consists of 4 replicate pots. Application of test materials is carried out by drenching each pot with 25 milliliters of an aqueous dispersion of the formulation being tested. Several hours after the test materials are applied, 800, second stage juveniles (J2) of freshly hatched Meloidogyne incognita (Root-knot nematode), are applied to each pot with the exception of the untreated control. The pots are maintained for 12-15 days at standard greenhouse temperature and lighting conditions and watered as needed for the duration of the test. At harvest, the soil is removed from the roots by rinsing the roots in water. The roots are then rated for galling on a scale from 0-9 where 0 represents no galls and 9 represents heavy galling.
Tests are conducted in 2″ pots, as explained in Example 2 above.

SMILES | Average Gall Rating (0-9) | Gall Rating (0-9)
O=CC=Cc1ccccc1 [Cinnamaldehyde, cinnamaldehyde] | 7.75 | 9
C=CCSSCC=C [Allyl disulfide (BAB-0294-75), diallyl disulfide] | 5 | 3.25
